IC50 data for 4 compounds are collected here from ChEMBL document CHEMBL5725686, “G protein-coupled receptor kinase 2 inhibitors and methods for use of the same” (2018).

Experiment [1] concerns the target G protein-coupled receptor kinase 5 (Homo sapiens, UniProt P34947). The experiment in a line: The low salt concentration and DDM were used to maximize GRK activity and disrupt small molecule aggregates from forming, respectively. […] Data was analyzed and inhibition curves were fit via GraphPad Prism.
Experiment [2] addresses T1, Rhodopsin kinase GRK1 (Homo sapiens, UniProt Q15835).
T1 sequence (Q15835 whole entry): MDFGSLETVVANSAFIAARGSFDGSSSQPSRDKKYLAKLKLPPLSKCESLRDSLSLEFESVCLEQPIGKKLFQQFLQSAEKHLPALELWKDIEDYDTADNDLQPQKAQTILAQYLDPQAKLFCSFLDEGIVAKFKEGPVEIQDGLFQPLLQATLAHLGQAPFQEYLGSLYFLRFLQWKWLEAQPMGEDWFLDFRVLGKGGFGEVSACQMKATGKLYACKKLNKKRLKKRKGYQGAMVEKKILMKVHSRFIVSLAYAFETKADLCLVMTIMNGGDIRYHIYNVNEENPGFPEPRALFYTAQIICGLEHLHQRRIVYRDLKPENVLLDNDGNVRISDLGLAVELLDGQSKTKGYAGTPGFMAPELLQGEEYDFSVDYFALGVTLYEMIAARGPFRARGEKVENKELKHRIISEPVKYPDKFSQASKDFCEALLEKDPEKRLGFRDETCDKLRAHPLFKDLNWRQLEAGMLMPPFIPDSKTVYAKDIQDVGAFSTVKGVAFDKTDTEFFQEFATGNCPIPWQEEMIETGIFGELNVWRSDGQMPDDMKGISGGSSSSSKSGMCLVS
The experiment in a line: The low salt concentration and DDM were used to maximize GRK activity and disrupt small molecule aggregates from forming, respectively. Reactions were quenched with SDS loading buffer, separated via SDS-PAGE, dried and exposed with a phosphorimaging screen prior to quantification via Typhoon imager, as previously reported (see Thal et al., ACS Chemical Biology 7(11):1830-1839 (2012)). Data was analyzed and inhibition curves were fit via GraphPad Prism.

Chain of G protein-coupled receptor kinase 5 (P34947 whole entry): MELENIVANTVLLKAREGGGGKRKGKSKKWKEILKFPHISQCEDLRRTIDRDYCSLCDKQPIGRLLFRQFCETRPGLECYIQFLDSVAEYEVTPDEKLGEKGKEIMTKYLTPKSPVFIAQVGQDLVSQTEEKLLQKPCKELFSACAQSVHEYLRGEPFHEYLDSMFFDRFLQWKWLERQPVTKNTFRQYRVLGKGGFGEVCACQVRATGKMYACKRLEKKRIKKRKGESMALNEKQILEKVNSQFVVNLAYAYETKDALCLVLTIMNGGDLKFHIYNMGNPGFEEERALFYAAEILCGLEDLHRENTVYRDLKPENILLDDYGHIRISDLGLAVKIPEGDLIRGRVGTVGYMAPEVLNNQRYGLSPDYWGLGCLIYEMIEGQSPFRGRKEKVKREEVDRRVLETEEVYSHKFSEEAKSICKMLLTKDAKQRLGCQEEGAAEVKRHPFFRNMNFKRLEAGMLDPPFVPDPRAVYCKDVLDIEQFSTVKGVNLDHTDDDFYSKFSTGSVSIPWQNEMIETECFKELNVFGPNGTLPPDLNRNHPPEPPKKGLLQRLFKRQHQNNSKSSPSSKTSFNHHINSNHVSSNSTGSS

A word on the IC50: it is the concentration that gives 50% inhibition. As for `C#CCN(CC(C)C)C(=O)Cc1cc(C2NC(=O)NC(C)=C2C(=O)Nc2ccc3[nH]ncc3c2)ccc1F` (centres undefined), the IC50 in experiment [1] amounted to 8.9 µM.

On to `CC1=C(C(=O)Nc2ccc3[nH]ncc3c2)C(c2ccc(F)c(C(=O)NCc3nccc4ccccc34)c2)NC(=O)N1` (centres undefined), for which the IC50 in experiment [1] came out at 5.4 µM.

As to `C#CCN(Cc1ccco1)C(=O)Cc1cc(C2NC(=O)NC(C)=C2C(=O)Nc2ccc3[nH]ncc3c2)ccc1F` (centres undefined), the IC50 in experiment [1] is 4.4 µM.

Turning to `CC1=C(C(=O)Nc2ccc3[nH]ncc3c2)C(c2ccc(F)c(CC(=O)N(CCO)Cc3ccco3)c2)NC(=O)N1` (centres undefined), the IC50 in experiment [2] is 21 µM.
